Laboratory results from patent US20240408010A1, “A Nano Emulsified Phyto-Drug For Transdermal Treatment of Diabetes” (University of South Africa, priority 2021, published 2024).

Key:
albino Wistar rats = test: Streptozotocin induction of hyperglycemic/diabetic state in albino Wistar rats; type: in vivo
Description: Table 1 presents the results of how the metabolism of normal albino rats progresses into a hyperglycemic/diabetic state as a multiple low-dosage of streptozotocin is administered for diabetes induction.

[1] = Solubility of diosgenin in oil phase; type: physicochemical; conditions: dissolved in combination with bottle gourd seed

SMILES	Glucose Concentration (albino Wistar rats; First Cycle, Day 15)	Glycated Hemoglobin GHb (albino Wistar rats; First Cycle, Day 15)	Glycated Hemoglobin HbA1c (albino Wistar rats; First Cycle, Day 15)	Glycated Hemoglobin MBG (albino Wistar rats; First Cycle, Day 15)	Glucose Concentration (albino Wistar rats; First Cycle, Dose 1 of multiple low-dosage streptozotocin)	Glucose Concentration (albino Wistar rats; First Cycle, Dose 2)	Glucose Concentration (albino Wistar rats; First Cycle, Dose 3)	Glucose Concentration (albino Wistar rats; Second cycle, Dose 4)	Glucose Concentration (albino Wistar rats; Second cycle, Dose 5)	Glucose Concentration (albino Wistar rats; Second cycle, Dose 6)	Glycated Hemoglobin GHb (albino Wistar rats; Second cycle, Dose 6)	Glycated Hemoglobin HbA1c (albino Wistar rats; Second cycle, Dose 6)	Glycated Hemoglobin MBG (albino Wistar rats; Second cycle, Dose 6)	solubility of diosgenin [1]
CN(N=O)C(=O)N[C@H]1C(O)O[C@H](CO)[C@@H](O)[C@@H]1O (mixture of isomers) [Streptozotocin, streptozotocin]	532.17 ± 22.15 mg/dL	12.37 ± 0.81	9.50 ± 0.54%	225.39 ± 15.55	171.56 ± 22.70 mg/dL	318.31 ± 19.86 mg/dL	439.31 ± 41.00 mg/dL	425.60 ± 31.10 mg/dL	459.87 ± 33.56 mg/dL	451.89 ± 44.27 mg/dL	12.40 ± 0.28	9.50 ± 0.19%	226.03 ± 5.53	–
C[C@@H]1CC[C@@]2(OC1)O[C@H]1C[C@H]3[C@@H]4CC=C5C[C@@H](O)CC[C@]5(C)[C@H]4CC[C@]3(C)[C@H]1[C@@H]2C [diosgenin]	–	–	–	–	–	–	–	–	–	–	–	–	–	enhanced
